Results published in patent US20230021483A1, “[…] […] METHOD AND CLASSIFICATION OF PHARMACEUTICAL COMPONENTS BY USING TRANSCRIPTOMES” (National Institutes of Biomedical Innovation, Health and …, priority 2016, published 2023).

Tested on: adjuvant-associated biological themes in LV, SP, LN
Settings: LV, ID
Source text: A defined sets of genes were selected according to specified criteria (e.g., FC, PA-call, threshold values). Their functional enrichment values were then obtained from TargetMine (Chen, Y. A., Tripathi, L. P. & Mizuguchi, K. PloS one 6, e17844 (2011)) (http://targetmine.mizuguchilab.org/) using the API interface. The following resources were used throughout the analysis via TargetMine Interface (GO, GOSlim, Integrated Pathway, KEGG, Reactome, and the NCI pathway). The Holm-Bonferroni method was used for multiple testing corrections.
Whole organ transcriptome data for each organ from each mouse were analyzed as follows to obtain biological themes for individual samples from each adjuvant-administered group of three mice. […] A set of Pj genes was first defined, where eij/ei(c)>2.0. Biological themes enriched within Pj were then identified using TargetMine (Chen, Y. A. et al., PloS one 6, e17844 (2011)) (http://targetmine.mizuguchilab.org/). Tj denote the resulting list of biological themes, with associated p-values from Fischer's exact test.
Next, the biological themes called by all the individual samples in the group were scored as follows. Having obtained three lists (T1, T2 and T3) for a given experimental condition, a consensus list T of themes was created as T={(t1, p1), (t2, p2), . . . }, where ti is a biological theme that appears in all of T1, T2 and T3, and pi is the smallest of the associated p-values. Only the themes with the p-value of <0.05 were included in T.
To summarize the biological themes in T further, a list of terms considered to be associated with adjuvant activity in general was separately prepared. AT={at1, at2, . . . }, where ati is a pre-selected adjuvant-associated term (e.g., “stress” or “cytokine”). Finally, an enrichment score S for an adjuvant-associated term ati was defined as: S(ati)=Σ−log(pj), where the name of tj in T includes a term ati as a substring and pj is the associated p-value.
This scoring scheme summarizes the relative enrichment of pre-selected adjuvant-associated terms in genes responding to each adjuvant in each organ.

CCOCc1nc2c(N)nc3ccccc3c2n1CC(C)(C)O [R848, 4-amino-2-(ethoxymethyl)-a,a-dimethyl-1H-imidazo[4,5-c]quinoline-1-ethanol]
IFN alpha, GO annotation line 1 of 5: 10.2
IFN alpha, GO annotation line 2 of 5: 3.15
IFN alpha: cellular response to interferon-alpha: 0
IFN alpha: positive regulation of interferon-alpha production: 0
IFN alpha: regulation of interferon-alpha production: 0
IFN beta: cellular response to interferon-beta: 17.9
IFN beta: interferon-beta production: 7.51
IFN beta: positive regulation of interferon-beta production: 6.66
IFN beta: regulation of interferon-beta production: 5.68
IFN beta: response to interferon-beta: 23.9
IFN gamma: cellular response to interferon-gamma: 11.2
IFN gamma: interferon-gamma production: 0
IFN gamma: regulation of interferon-gamma production: 0
IFN gamma: response to interferon-gamma: 15.7
NF-kappa B signaling pathway, GO annotation line 1 of 4: 8.86
NF-kappa B signaling pathway, GO annotation line 2 of 4: 7.93
NF-kappa B signaling pathway, GO annotation line 3 of 4: 5.3
NF-kappa B signaling pathway, GO annotation line 4 of 4: 5.28
TNF signaling pathway: 16.1
adaptive immune response, GO annotation line 1 of 5: 4.42
adaptive immune response, GO annotation line 2 of 5: 6.23
adaptive immune response, GO annotation line 3 of 5: 4.06
adaptive immune response, GO annotation line 4 of 5: 0
adaptive immune response, GO annotation line 5 of 5: 0
apoptosis, GO annotation line 1 of 8: 18.6
apoptosis, GO annotation line 2 of 8: 15.5
apoptosis, GO annotation line 3 of 8: 10.6
apoptosis, GO annotation line 4 of 8: 5.18
apoptosis, GO annotation line 5 of 8: 4.1
apoptosis, GO annotation line 6 of 8: 5.48
apoptosis, GO annotation line 7 of 8: 0
apoptosis, GO annotation line 8 of 8: 0
cell death, GO annotation line 1 of 9: 23.1
cell death, GO annotation line 2 of 9: 18.3
cell death, GO annotation line 3 of 9: 19.4
cell death, GO annotation line 4 of 9: 15.5
cell death, GO annotation line 5 of 9: 15.5
cell death, GO annotation line 6 of 9: 4.66
cell death, GO annotation line 7 of 9: 4.64
cell death, GO annotation line 8 of 9: 0
cell death, GO annotation line 9 of 9: 0
chemokine, GO annotation line 1 of 4: 3.95
chemokine, GO annotation line 2 of 4: 0
chemokine, GO annotation line 3 of 4: 0
chemokine, GO annotation line 4 of 4: 0
chemotaxis, GO annotation line 1 of 11: 11
chemotaxis, GO annotation line 2 of 11: 0
chemotaxis, GO annotation line 3 of 11: 8.03
chemotaxis, GO annotation line 4 of 11: 3.91
chemotaxis, GO annotation line 5 of 11: 0
chemotaxis, GO annotation line 6 of 11: 4.44
chemotaxis, GO annotation line 7 of 11: 3.7
chemotaxis, GO annotation line 8 of 11: 3.31
chemotaxis, GO annotation line 9 of 11: 0
chemotaxis, GO annotation line 10 of 11: 3.62
chemotaxis, GO annotation line 11 of 11: 0
cytokine, GO annotation line 1 of 17: 44.8
cytokine, GO annotation line 2 of 17: 30.5
cytokine, GO annotation line 3 of 17: 30.4
cytokine, GO annotation line 4 of 17: 11.1
cytokine, GO annotation line 5 of 17: 30.4
cytokine, GO annotation line 6 of 17: 26.5
cytokine, GO annotation line 7 of 17: 16.5
cytokine, GO annotation line 8 of 17: 5.44
cytokine, GO annotation line 9 of 17: 4.8
cytokine, GO annotation line 10 of 17: 20.3
cytokine, GO annotation line 11 of 17: 5.01
cytokine, GO annotation line 12 of 17: 0
cytokine, GO annotation line 13 of 17: 5.55
cytokine, GO annotation line 14 of 17: 6.84
cytokine, GO annotation line 15 of 17: 0
cytokine, GO annotation line 16 of 17: 0
cytokine, GO annotation line 17 of 17: 0
defense response, GO annotation line 1 of 11: 71.2
defense response, GO annotation line 2 of 11: 50.3
defense response, GO annotation line 3 of 11: 33.9
defense response, GO annotation line 4 of 11: 46.5
defense response, GO annotation line 5 of 11: 18.6
defense response, GO annotation line 6 of 11: 8.29
defense response, GO annotation line 7 of 11: 5.54
defense response, GO annotation line 8 of 11: 20
defense response, GO annotation line 9 of 11: 6.02
defense response, GO annotation line 10 of 11: 4.72
defense response, GO annotation line 11 of 11: 0
immune response, GO annotation line 1 of 8: 54.5
immune response, GO annotation line 2 of 8: 27.8
immune response, GO annotation line 3 of 8: 34.2
immune response, GO annotation line 4 of 8: 14.6
immune response, GO annotation line 5 of 8: 12.6
immune response, GO annotation line 6 of 8: 15.1
immune response, GO annotation line 7 of 8: 0
immune response, GO annotation line 8 of 8: 0
inflammatory response, GO annotation line 1 of 5: 22.2
inflammatory response, GO annotation line 2 of 5: 6.29
inflammatory response, GO annotation line 3 of 5: 0
inflammatory response, GO annotation line 4 of 5: 0
inflammatory response, GO annotation line 5 of 5: 0
innate immune response, GO annotation line 1 of 6: 49.6
innate immune response, GO annotation line 2 of 6: 37.9
innate immune response, GO annotation line 3 of 6: 22.9
innate immune response, GO annotation line 4 of 6: 17.9
innate immune response, GO annotation line 5 of 6: 13.8
innate immune response, GO annotation line 6 of 6: 8.91
interleukin-6: interleukin-6 production: 7.8
interleukin-6: positive regulation of interleukin-6 production: 4.53
interleukin-6: regulation of interleukin-6 production: 6.67
interleukin-12: interleukin-12 production: 0
interleukin-12: positive regulation of interleukin-12 production: 0
interleukin-12: regulation of interleukin-12 production: 0
migration, GO annotation line 1 of 10: 8.03
migration, GO annotation line 2 of 10: 0
migration, GO annotation line 3 of 10: 7.89
migration, GO annotation line 4 of 10: 5.8
migration, GO annotation line 5 of 10: 3.14
migration, GO annotation line 6 of 10: 3.96
migration, GO annotation line 7 of 10: 3.31
migration, GO annotation line 8 of 10: 0
migration, GO annotation line 9 of 10: 0
migration, GO annotation line 10 of 10: 0
stress, GO annotation line 1 of 3: 63.8
stress, GO annotation line 2 of 3: 45.6
stress, GO annotation line 3 of 3: 0
wounding, GO annotation line 1 of 3: 11.1
wounding, GO annotation line 2 of 3: 9.74
wounding, GO annotation line 3 of 3: 4.53
